According to ChEMBL document CHEMBL5321207, “Design, synthesis and biological characterization of novel activators of the TrkB neurotrophin receptor” (Eur J Med Chem, 2023):
Calls of active or inactive are those of the source. The calls are words filed in the database; no cut-off is given here.

What was measured:
Cortical neurone [1] = assay: Neurotoxicity against Sprague-Dawley rat primary cortical neurons at 1 uM incubated for 24 hrs by HCS analysis; format: functional, cell-based
SH-SY5Y [2] = assay: Induction of neurite outgrowth in retinoid acid-treated human SH-SY5Y cells at 100 nM incubated for 2 days by fluorescence microscopy relative to retinoid acid; format: functional; settings: time 2 day
[3] = Chromatographic hydrophobicity index, log D of compound at pH 7.4 by HPLC analysis; format: physicochemical; settings: buffer
[4] = Chromatographic hydrophobicity index of compound at pH 7.4 by HPLC analysis; format: physicochemical
SH-SY5Y [5] = assay: Induction of neurite outgrowth in retinoid acid-treated human SH-SY5Y cells at 10 nM incubated for 2 days by fluorescence microscopy relative to retinoid acid; format: functional; settings: time 2 day
SH-SY5Y [6] = assay: Induction of neurite outgrowth in retinoid acid-treated human SH-SY5Y cells at 1000 nM incubated for 2 days by fluorescence microscopy relative to retinoid acid; format: functional; settings: time 2 day
[7] = molecular target: BDNF/NT-3 growth factors receptor (Mus musculus) (UniProt P15209); assay: Induction of TrkB phosphorylation transfected in mouse NIH3T3 cells at 1 uM incubated for 20 mins followed by serum deprivation for 6 hrs by Western blot analysis; format: cell-based; settings: filed as activator, time 6.33 hrs
NIH3T3 = assay: Cytotoxicity against serum-starved mouse NIH3T3 cells transfected with TrkB assessed as cell death at 1 uM measured after 24 hrs by CellTox green dye/Hoechst staining based microscopy; format: toxicity; settings: nih3t3, 24 h
Cortical neurone [8] = assay: Neurotoxicity against Sprague-Dawley rat primary cortical neurons at 10 uM incubated for 24 hrs by HCS analysis; format: functional, cell-based
[9] = molecular target: BDNF/NT-3 growth factors receptor (Mus musculus) (UniProt P15209); assay: Induction of TrkB phosphorylation in mouse primary cortical astrocytes at 1 uM incubated for 20 mins followed by serum deprivation for 6 hrs by Western blot analysis; format: cell-based; settings: Cortex, filed as activator, time 6.33 hrs
Cortical neurone [10] = assay: Neurotoxicity against Sprague-Dawley rat primary cortical neurons at 100 uM incubated for 24 hrs by HCS analysis; format: functional, cell-based
[11] = molecular target: BDNF/NT-3 growth factors receptor (Mus musculus) (UniProt P15209); assay: Induction of TrkB phosphorylation in mouse primary cortical astrocytes assessed as Akt phosphorylation at 1 uM incubated for 20 mins followed by serum deprivation for 6 hrs by Western blot analysis; format: cell-based; settings: Cortex, filed as activator, time 6.33 hrs
Hepatocyte = assay: Hepatotoxicity against mouse hepatocytes at 1 uM incubated for 24 hrs by HCS analysis; format: functional, cell-based
[12] = test system: Primary spinal motor neuron; assay: (§1) Neuroprotective activity against glutamate-treated Wistar rat primary spinal motor neurons assessed as increase in neurite network pretreated for 1 hr followed by glutamate treatment for 20 mins and subsequent washout of compound and glutamate and re-treatment of compound for 48 hrs by imaging analysis; format: functional, cell-based; settings: dose 0.5-1000 nM, time 49.33 hrs
[13] = test system: Primary spinal motor neuron; assay: as §1, with “decrease” for “increase”, “TDP43 accumulation” for “neurite network”; format: functional, cell-based; settings: dose 0.5-1000 nM, time 49.33 hrs
[14] = test system: Primary spinal motor neuron; assay: Neuroprotective activity against glutamate-treated Wistar rat primary spinal motor neurons assessed as neuronal survival pretreated for 1 hr followed by glutamate treatment for 20 mins and subsequent washout of compound and glutamate and re-treatment of compound for 48 hrs by imaging analysis; format: functional, cell-based; settings: dose 0.5-1000 nM, time 49.33 hrs

Chain of BDNF/NT-3 growth factors receptor (Mus musculus) (P15209 whole entry): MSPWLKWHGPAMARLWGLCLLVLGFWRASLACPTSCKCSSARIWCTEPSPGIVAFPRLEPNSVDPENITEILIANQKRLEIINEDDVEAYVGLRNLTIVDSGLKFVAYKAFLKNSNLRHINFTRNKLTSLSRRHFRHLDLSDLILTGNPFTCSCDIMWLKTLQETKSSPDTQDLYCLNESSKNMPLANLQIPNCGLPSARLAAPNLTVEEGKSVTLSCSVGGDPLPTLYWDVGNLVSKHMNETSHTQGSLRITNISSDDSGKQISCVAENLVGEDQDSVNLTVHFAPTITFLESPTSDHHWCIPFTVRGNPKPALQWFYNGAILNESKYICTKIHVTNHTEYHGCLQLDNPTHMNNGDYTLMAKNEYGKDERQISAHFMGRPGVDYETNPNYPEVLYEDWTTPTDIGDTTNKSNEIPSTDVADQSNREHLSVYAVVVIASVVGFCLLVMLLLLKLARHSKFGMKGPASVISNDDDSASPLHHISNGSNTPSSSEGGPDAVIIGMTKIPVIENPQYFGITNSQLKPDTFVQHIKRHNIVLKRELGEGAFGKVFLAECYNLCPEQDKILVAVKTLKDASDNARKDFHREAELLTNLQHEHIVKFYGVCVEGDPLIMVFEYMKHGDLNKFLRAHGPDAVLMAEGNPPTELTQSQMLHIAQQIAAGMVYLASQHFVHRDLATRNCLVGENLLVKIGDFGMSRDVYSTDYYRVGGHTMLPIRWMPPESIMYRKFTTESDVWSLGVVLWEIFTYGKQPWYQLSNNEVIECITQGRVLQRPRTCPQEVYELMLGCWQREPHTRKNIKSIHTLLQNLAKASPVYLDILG

O=C(NCCO)c1cc(C(=O)NCCO)cc(C(=O)NCCCN2CCOCC2)c1
Activity (Cortical neurone [1]): inactive
Activity (SH-SY5Y [2]): 127.21%
chromatographic logD [3]: -0.28
CHI [4]: 18.7
Activity (SH-SY5Y [5]): 121.11%
Activity (SH-SY5Y [6]): 122.77%

O=C(NCCO)c1cc(C(=O)NCCO)cc(C(=O)NCCO)c1
Activity [7]: Active
Activity (Cortical neurone [1]): inactive
Activity (NIH3T3): Non-Toxic
Activity (SH-SY5Y [2]): 124.7%
chromatographic logD [3]: -0.53
Activity (Cortical neurone [8]): inactive
Activity [9]: Active
CHI [4]: 13.8
Activity (Cortical neurone [10]): inactive
Activity [11]: Active
Activity (SH-SY5Y [5]): 120.18%
Activity (SH-SY5Y [6]): 113.86%

O=C(NCCO)c1cc(C(=O)NCCO)cc(C(=O)NCCN2CCOCC2)c1
Activity (Cortical neurone [1]): inactive
Activity (SH-SY5Y [2]): 107.68%
chromatographic logD [3]: -0.31
Activity [9]: Active
CHI [4]: 18.1
Activity (Hepatocyte): inactive
Activity [11]: Active
Activity (SH-SY5Y [5]): 90.19%
Activity (SH-SY5Y [6]): 114.91%

CC[C@H](C)[C@H](N)C(=O)NCCNC(=O)c1cc(C(=O)NCCO)cc(C(=O)NCCO)c1.Cl
Activity (Cortical neurone [1]): inactive
Activity (SH-SY5Y [2]): 158.93%
chromatographic logD [3]: -0.24
Activity (Cortical neurone [8]): inactive
CHI [4]: 19.5
Activity (SH-SY5Y [5]): 139.04%
Activity (SH-SY5Y [6]): 143.82%

O=C(NCCO)c1cc(C(=O)NCCO)cc(C(=O)NCC2CCN(CC3CCCCC3)CC2)c1
Activity [7]: Active
Activity [12]: Dose-Dependent Effect
Activity (NIH3T3): Non-Toxic
Activity (SH-SY5Y [2]): 181.13%
chromatographic logD [3]: 0.48
Activity [13]: Dose-Dependent Effect
Activity [9]: Active
CHI [4]: 33.4
Activity [14]: Dose-Dependent Effect
Activity [11]: Active
Activity (SH-SY5Y [5]): 183.59%
Activity (SH-SY5Y [6]): 113.54%

CCCN1CCC(CNC(=O)c2cc(C(=O)NCCO)cc(C(=O)NCCO)c2)CC1
Activity [7]: Active
Activity (Cortical neurone [1]): inactive
Activity (NIH3T3): Non-Toxic
Activity (SH-SY5Y [2]): 102.23%
chromatographic logD [3]: -0.34
Activity (Cortical neurone [8]): inactive
CHI [4]: 17.6
Activity (Cortical neurone [10]): inactive
Activity (Hepatocyte): inactive
Activity (SH-SY5Y [5]): 97.67%
Activity (SH-SY5Y [6]): 104.04%
